Experimental data taken from patent publication US20080108622A1, “COMBINATION THERAPY FOR THE TREATMENT OF PAIN” (priority 2006, published 2008).
“Also recorded” adds a separate entry of the source.

Assays:
adult male rats = experiment: Postincisional hypersensitivity model of postoperative pain (paw incision, withdrawal threshold to von Frey filaments); type: in vivo, rat; settings: intrathecal (i.t.), 24 h after paw incision surgery
Method: Animal preparation: Following Animal Care and Use Committee approval, an intrathecal (i.t.) catheter with tip in the lumbar space is inserted as previously described in adult male rats weighing 250 g (Yaksh and Rudy, Physiol Behav. 1976, 7, 1032-1036). One week following the insertion of the i.t. catheter, paw incision surgery is performed as previously described (Brennan et al., Pain 1996, 64, 493-501). Briefly, animals are anesthetized with halothane, and a 1-cm long incision is made in the plantar aspect of the left hind paw starting 0.5 cm from the edge of the heel toward the toe after sterile preparation with 70% ethanol. The plantaris muscle is elevated and incised longitudinally. The wound is closed with 2 mattress sutures of 5.0 silk. Subsequently, withdrawal threshold to von Frey filaments is determined one day after surgery (Chaplan et al., J. Neurosci. Methods, 1994, 53, 55-63). For all testing but pilot dose ranging studies, investigators are blinded to study drug administration. A cut off value of 22 g is used. […]
Single drug injection: For single drug administration, a volume containing 5 μL drug is used, followed by 10 μL of saline. […] Dose response curves are first constructed, and ED40 values for single drugs are then determined at the time of peak effect.
Drug interaction: For the combination of T-62 with morphine and NBQX, two injections are performed since the time of peak effect for morphine and NBQX is 30 min earlier than that of T-62 (T-62 is injected 30 min before drug injections). Paw withdrawal thresholds are determined before surgery, before drug injection, and 30, 60, 90, 120, 150, 180, and 210 min after the second drug injection. […] The dose response curves are then constructed for the combined drugs, and the ED40 values of the combined drugs are calculated at the time point of peak effect. […]
Data analysis: Data are presented as mean ±S.E. Withdrawal threshold data are analyzed by two-way analysis of variance followed by Fisher's LSD test. […] Isobolograms are statistically analyzed by student T test.

male Sprague-Dawley rats = experiment: Neuropathic pain model (Chung model, spinal nerve ligation, withdrawal threshold to von Frey filaments); type: in vivo, rat; settings: Chung model of chronic neuropathic pain, FIG. 8; for anti-allodynic effects: intrathecal single injection
From the text: Spinal Nerve Ligation: After Animal Care and Use Committee approval, male Sprague-Dawley rats (Harlan, Indianapolis, Ind., USA) weighing 180-200 g undergo anesthesia as previously described by Kim and Chung (Pain 1992, 50, 355-363). Briefly, under general anesthesia with inhalational halothane, the left L5 and L6 spinal nerves are identified through a small laminotomy and tightly ligated. Approximately one week later, an intrathecal catheter is placed under general anesthesia by insertion under direct vision of a polyethylene catheter through a small slit in the dura at the cisterna magnum, and advanced 8.5 cm such that the catheter tip resides in the lower lumbar intrathecal space. Animals are studied approximately one week later. Ligation of the lumbar spinal nerves results in a primarily unilateral increase in the sensitivity to light touch on the operated side. Sensitivity is assessed via application of calibrated von Frey filaments. The withdrawal threshold is determined using an up down method as previously described by Chaplan et al. (J. Neurosci. Methods 1994, 53, 55-63).
Experimental Design: Animals receive, at least 4 weeks after spinal nerve ligation surgery, and at least 1 week after intrathecal catheter insertion, single injections of vehicle (β-cyclodextrin) or the drug substance, using a randomized and blinded protocol. Withdrawal thresholds are determined at intervals for up to 20 hr after injection.

[1] = cited from earlier work

| SMILES | anti-hypersensitivity effect (reduction of mechanical hypersensitivity) (adult male rats) | anti-allodynic effects (male Sprague-Dawley rats) | further results |
| --- | --- | --- | --- |
| CN1CC[C@]23c4c5ccc(O)c4O[C@H]2[C@@H](O)C=C[C@H]3[C@H]1C5 [Morphine, morphine, reference compound] | reduces mechanical hypersensitivity in a time and dose dependent manner | – | – |
| NS(=O)(=O)c1cccc2c1c([N+](=O)[O-])cc1nc(O)c(O)nc12 [NBQX, 2,3-dihydroxy-6-nitro-7-sulfamoylbenzo(f)quinoxaline, reference compound] | reduces the mechanical hypersensitivity in a time and dose dependent manner | – | – |
| Nc1sc2c(c1C(=O)c1ccc(Cl)cc1)CCCC2 [T-62, (2-amino-4,5,6,7-tetrahydrobenzo[b]thiophen-3-yl)(4-chlorophenyl)methanone] | reduced mechanical hypersensitivity in a time dependent manner; also recorded: modest effect | dose-dependent anti-allodynic effects | effect on inflammatory and neuropathic pain ([1]; literature (Li et al. 2003, Li et al. 2002, Pan et al. 2001; US 6,248,774, US 6,489,356)): reduce inflammatory and neuropathic pain; oral efficacy ([1]; literature): orally effective; adverse side effects ([1]; literature, compared with administration of adenosine): avoid of the adverse side effects associated with administration of adenosine |
| Nc1sc2c(c1C(=O)c1ccccc1)CCS2 [formula (Ib)] | – | dose-dependent anti-allodynic effects | – |
| Nc1sc2c(c1C(=O)c1cccc3ccccc13)CCC2 [formula (Ic)] | – | dose-dependent anti-allodynic effects | relative potency among the three enhancers (male Sprague-Dawley rats): most potent enhancer of the three agents |
